# Data published in patent US5861424A, “Composition and method for treating cancer” (priority 1995, dated 1999).
# Where two headings read alike, the source gives them in different places.
# Legend:
# [1] = system: human colon carcinoma cell line CX-1; experiment: Colony formation assay, human colon carcinoma CX-1; type: cell-based; conditions: Table III; for IC50: Homo sapiens, Colon carcinoma cell, 24 h treatment, colony count after 7 to 10 days, read-out: CX-1 (IC50); for Selectivity (ratio of IC50 for CV-1 and IC50 for CX-1): CV-1/CX-1
# Protocol: (§2) Human colon carcinoma cell line CX-1 or normal monkey kidney epithelial cell line CV-1 was chosen as representatives of cancer cells and normal cells, respectively. […] CX-1 cells (2,000 cells/well) and CV-1 cells (1,000 cells/well) were plated in 24-well plastic culture plates. […] The control received culture media only. Cells were treated with compounds of General Formulas (1) to (6) at 37° C. for 24 hours. After rinsing with fresh culture medium three times, the cells were further incubated at 37° C. for 7 to 10 days. Cell colonies were fixed and stained with 2% crystal violet in 70% ethanol for 10 minutes and rinsed in water. […] The selectivity is defined as the ratio of IC50 for CV-1 and IC50 for CX-1.
# [2] = system: human pancreatic carcinoma CRL 1420 cell line; experiment: Colony formation assay, human pancreatic carcinoma CRL 1420; type: cell-based; conditions: Table VII; for Selectivity (CV-1 IC50 / CRL-1420 IC50): CV-1/CRL-1420; for IC50: Homo sapiens, 24 h
# Excerpt: (§1) The control received culture media only.
# The Selectivity values, CRL 1420 values and CV-1 values for compounds of the General Formulas (1) to (6) used in the present invention are shown in Table VII below.
# human melanoma LOX = experiment: Survival of nude mice implanted with human melanoma LOX; type: in vivo, human melanoma in male athymic Swiss nu/nu mouse; conditions: Mus musculus, ip, 24 h, read-out: T/C (survival)
# Protocol: LOX, a human melanoma cell line, grown subcutaneously in nude mice was excised, trypsinized to yield a single cell suspension using a metal grid with a […]. Red blood cells were lysed by incubation with 0.17 molar ammonium chloride at 4° C. for 20 minutes. Five million viable trypan blue negative cells made up in 0.1 ml of Dulbecco modified Eagles' medium (DME) were injected into the peritoneal cavity of a male athymic Swiss nu/nu mouse. The control group and each treatment group consisted of 5 to 10 mice. Treatment was commenced the following day by intraperitoneal injection.
# Ten control mice received 0.25 ml of 2% dextrose on those days the treated groups were injected with the compounds of this invention. The compounds of the General Formulas. (1) to (6) used in this invention which were tested are listed in Table VIII below and the results obtained are shown in Table VIII and FIG. 1-6 of the accompanying drawings. T/C is the ratio, expressed as a percentage of the mean survival age of the treated group to the mean survival age of the untreated control group.
# [3] = system: human colon carcinoma CX-1; experiment: Anti-human colon carcinoma CX-1 activity in nude mice, tumor inhibition; type: in vivo, human colon carcinoma in Swiss nu/nu mice; conditions: Mus musculus, ip, 24 h, 20 mg/kg
# Excerpt: Human colon carcinoma cell line CX-1 has been chosen by the National Cancer Institute as a mode for cancer drug screening (NCI Protocol 3C2H2). It was established in culture from the surgical explant of the primary colon adenocarcinoma of a person with no previous chemotherapy. The cultured CX-1 cells, upon subcutaneous injection, can grow readily in nude mice as a moderately- to well-differentiated human colon carcinoma. CEA is expressed as expected for differentiated colon carcinoma cells. Abundant keratin, consistent with epithelial origin, is present. Increased uptake and prolonged retention of delocalized lipophilic cations are observed.
# Swiss nu/nu mice obtained from Taconic Farm were housed in a pathogen-free environment. Tumors subcutaneously passaged in nude mice were excised under sterile conditions and converted to a single cell suspension using a metal grid with a 0.4 mm mesh. Red blood cells were lysed by incubation with 0.17M ammonium chloride at 4° C. for 20 minutes. Cells were scored for viability with trypan blue. Viable CX-1 cells (2.5 million) made up in 0.1 ml of cell culture medium were injected subcutaneously into each nude mouse. The mice were randomly allocated into a control group (five mice) and a treatment group (five mice per group). The drug treatment was commenced the next day. Doses and schedules were developed empirically and were based mainly on information on LD50 and LD10 obtained from preliminary toxicity studies. The control group received an equivalent volume of hydroxylpropyl-β-cyclodextrin-5% glucose solution.
# The pharmaceutical compositions tested comprised solutions in 5% glucose subjected to sonication at concentrations of 1 mg/ml. Those compounds which were not completely dissolved by this procedure were dissolved in hydroxypropyl-β-cyclodextrin using the following method. Hydroxypropyl-β-cyclodextrin (45 g) was mixed with 100 ml of sterilized, double distilled water and stirred for four hours. Each of the compounds to be tested (20 mg) was mixed with 10 ml of hydroxypropyl-β-cyclodextrin solution and sonicated for 60 minutes in the dark. This solution was then diluted in 5% glucose to yield a final compound concentration of 0.5 mg/ml, and further sonicated for 60 minutes in the dark to assure that the compound was completely dissolved.
# When the growth of tumors in the control group reached the exponential phase and the size of the tumor was palpable (usually 20 to 30 days after tumor implantation), the experiments were terminated. Tumors in each mouse were excised and weighed using an analytical balance. Total tumor weight in each group from five mice was calculated. Per cent tumor inhibition between the treated group and the control group was then calculated for each group.
# [4] = system: normal monkey kidney epithelial cell line CV-1; experiment: Colony formation assay, normal monkey kidney epithelial cells CV-1; conditions: Primates, Epithelial cell;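 note: colonies visualized by crystal violet staining, incubation at 37 °C, IC50 relative to untreated wells given culture medium alone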
# Protocol: as §2
# [5] = system: human bladder carcinoma EJ cell line; experiment: Colony formation assay, human bladder carcinoma EJ; type: cell-based; conditions: Table IV; for IC50: Homo sapiens, EJ, 24 h, 24 h treatment, read-out: EJ (IC50); for Selectivity (CV-1 IC50 / EJ IC50): CV-1/EJ
# Excerpt: as §1
# [6] = system: human melanoma LOX cell line; experiment: Colony formation assay, human melanoma LOX; type: cell-based; conditions: Table V; for IC50: Homo sapiens, LOX, 24 h, 24 h treatment, read-out: LOX (IC50); for Selectivity (CV-1 IC50 / LOX IC50): CV-1/LOX
# Excerpt: as §1
# [7] = system: human breast carcinoma MCF-7 cell line; experiment: Colony formation assay, human breast carcinoma MCF-7; type: cell-based; conditions: Table VI; for IC50: Homo sapiens, MCF7, 24 h, 24 h treatment, read-out: MCF-7 (IC50); for Selectivity (CV-1 IC50 / MCF-7 IC50): CV-1/MCF-7
# Excerpt: as §1
# The Selectivity values, MCF-7 values and CV-1 values for compounds of the General Formulas (1) to (6) used in the present invention are shown in Table VI below.
# [8] = read-out: CV-1 (IC50), Table III, 24 h treatment, colony count after 7 to 10 days
# [9] = read-out: CV-1 (IC50), Table VII
# [10] = i.p. on day 1, 4, 7, 11, 15, 18
# [11] = read-out: CV-1 (IC50), Table IV
# [12] = read-out: CV-1 (IC50), Table VI
smiles,measurement,setting,value
CCn1c(=Cc2sc3c4ccccc4ccc3[n+]2CC)sc(=CC=C2Sc3ccc4ccccc4c3N2C)c1=O [Compound 32],IC50,[1],0.02 µg/mL
same,Selectivity (ratio of IC50 for CV-1 and IC50 for CX-1),[1],1000
same,CRL-1420 (IC50),[2]; 24 h treatment,< 0.1 µg/mL
same,Selectivity (CV-1 IC50 / CRL-1420 IC50),[2],> 200
same,response vs control in vivo at 40 mg/kg,"human melanoma LOX; 40 mg/kg, i.p. on day 1, 2, 3, 4, 5, 7, 8, 9, 10",231%
same,inhibition in vivo at 20 mg/kg,"[3]; i.p. on day 1, 2, 4, 6, 8",40.5%
same,IC50,[4]; [8],20 µg/mL
same,IC50,[4]; [9],20 µg/mL
CCn1c(=Cc2sc3c4ccccc4ccc3[n+]2C)sc(=CC=C2Sc3ccc4ccccc4c3N2C)c1=O [Compound 44],IC50,[1],0.02 µg/mL
same,Selectivity (ratio of IC50 for CV-1 and IC50 for CX-1),[1],1000
same,inhibition in vivo at 20 mg/kg,[3]; [10],54.8%
same,IC50,[4]; [8],20 µg/mL
CCN1C(=CC=c2sc(=Cc3sc4c5ccccc5ccc4[n+]3CC)n(C)c2=O)Sc2ccc3ccccc3c21 [Compound 45],IC50,[1],0.02 µg/mL
same,Selectivity (ratio of IC50 for CV-1 and IC50 for CX-1),[1],1000
same,IC50,[5],0.05 µg/mL
same,Selectivity (CV-1 IC50 / EJ IC50),[5],400
same,IC50,[6],0.07 µg/mL
same,Selectivity (CV-1 IC50 / LOX IC50),[6],286
same,IC50,[7],0.06 µg/mL
same,Selectivity (CV-1 IC50 / MCF-7 IC50),[7],333
same,IC50,[2]; 24 h treatment,0.07 µg/mL
same,Selectivity (CV-1 IC50 / CRL-1420 IC50),[2],286
same,response vs control in vivo at 20 mg/kg,"human melanoma LOX; i.p. on day 1, 2, 3, 6, 9, 13",137%
same,inhibition in vivo at 20 mg/kg,[3]; [10],56.8%
same,IC50,[4]; [8],20 µg/mL
same,IC50,[4]; [11],20 µg/mL
same,IC50,"[4]; read-out: CV-1 (IC50), Table V",20 µg/mL
same,IC50,[4]; [12],20 µg/mL
same,IC50,[4]; [9],20 µg/mL
CCN1C(=CC=c2sc(=Cc3sc4c5ccccc5ccc4[n+]3C)n(C)c2=O)Sc2ccc3ccccc3c21 [Compound 46],IC50,[1],0.05 µg/mL
same,Selectivity (ratio of IC50 for CV-1 and IC50 for CX-1),[1],400
same,IC50,[5],0.082 µg/mL
same,Selectivity (CV-1 IC50 / EJ IC50),[5],244
same,IC50,[6],0.064 µg/mL
same,Selectivity (CV-1 IC50 / LOX IC50),[6],312
same,IC50,[7],0.082 µg/mL
same,Selectivity (CV-1 IC50 / MCF-7 IC50),[7],244
same,IC50,[2]; 24 h treatment,0.064 µg/mL
same,Selectivity (CV-1 IC50 / CRL-1420 IC50),[2],312
same,response vs control in vivo at 20 mg/kg,"human melanoma LOX; i.p. on day 1, 3, 6, 9, 13, 16",222%
same,inhibition in vivo at 20 mg/kg,"[3]; i.p. on day 1, 5, 7, 9",60.1%
same,IC50,[4]; [8],20 µg/mL
same,IC50,[4]; [11],20 µg/mL
same,IC50,"[4]; read-out: CV-1 (IC50), Table V",20 µg/mL
same,IC50,[4]; [12],20 µg/mL
same,IC50,[4]; [9],20 µg/mL
CC[n+]1c(C=c2sc(=CC=C3Sc4ccc5ccccc5c4N3C)c(=O)n2C)sc2c3ccccc3ccc21 [Compound 47],IC50,[1],0.05 µg/mL
same,Selectivity (ratio of IC50 for CV-1 and IC50 for CX-1),[1],400
same,IC50,[5],0.082 µg/mL
same,Selectivity (CV-1 IC50 / EJ IC50),[5],244
same,IC50,[6],0.082 µg/mL
same,Selectivity (CV-1 IC50 / LOX IC50),[6],244
same,IC50,[7],0.1 µg/mL
same,Selectivity (CV-1 IC50 / MCF-7 IC50),[7],200
same,IC50,[2]; 24 h treatment,0.064 µg/mL
same,Selectivity (CV-1 IC50 / CRL-1420 IC50),[2],312
same,response vs control in vivo at 20 mg/kg,"human melanoma LOX; i.p. on day 1, 3, 6, 9, 13, 16",156%
same,inhibition in vivo at 20 mg/kg,[3]; [10],64.1%
same,IC50,[4]; [8],20 µg/mL
same,IC50,[4]; [11],20 µg/mL
same,IC50,"[4]; read-out: CV-1 (IC50), Table V",20 µg/mL
same,IC50,[4]; [12],20 µg/mL
same,IC50,[4]; [9],20 µg/mL
CN1C(=CC=c2sc(=Cc3sc4c5ccccc5ccc4[n+]3C)n(C)c2=O)Sc2ccc3ccccc3c21 [Compound 48],IC50,[1],0.005 µg/mL
same,Selectivity (ratio of IC50 for CV-1 and IC50 for CX-1),[1],4000
same,inhibition in vivo at 20 mg/kg,[3]; [10],72.4%
same,IC50,[4]; [8],20 µg/mL
